Assay results from paper PMC5187867, “Crystal Structure of a Putative Cytochrome P450 Alkane Hydroxylase (CYP153D17) from Sphingomonas sp. PAMC 26605 and Its Conformational Substrate Binding” (International Journal of Molecular Sciences, 2016).

Target: CYP153D17 (Sphingomonas sp. PAMC 26605, UniProt A0ACD6BAR9)
Experiment: UV-Vis spectral binding titration (substrate binding assay) of purified CYP153D17
Conditions: 1 μM CYP153D17; for Kd: apparent dissociation constant from titration curves (A390-A420); for Spin Shift (%): shift in heme spin state from low-spin (Soret maximum at 420 nm) to high-spin (390 nm)
Procedure: To determine the binding affinity of CYP153D17, spectral binding titrations were performed with the alkanes (decane and dodecane) and fatty acids (capric acid, lauric acid, and myristic acid). All tested substrates changed the spectrum of CYP153D17, with a shift of the Soret band at 420 to 390 nm, which is typical of the high-spin form (Figure 2), after which the apparent dissociation constants from the titration curves (Kd values) were obtained (Table 1). Dodecane, capric acid, and lauric acid binding to CYP153D17 induced a ≥90% shift in the heme spin state from low-spin (Soret maximum at 420 nm) to high-spin (Soret maximum at 390 nm), whereas decane and myristic acid induced a ≥80% shift in the same heme spin state.
To determine whether CYP153D17 can bind alkanes and fatty acids, a UV-Vis (Ultraviolet-Visible) spectral binding titration assay was performed. Binding of the substrate to CYP153D17 induced a shift of the Soret band of the CYP absorption spectrum from A420 to A390 [30]. Alkanes (decane and dodecane) and fatty acids (capric acid, lauric acid, and myristic acid) were dissolved in ethanol to prepare stock solutions of different concentrations (0.4–5 mM) for each substrate. Binding of substrate to CYP153D17 was carried out by the consecutive addition of 1-μL aliquots from the stock solutions to 1 mL of 1 μM CYP153D17 solution, and the UV–Vis spectra of the mixture were recorded. To calculate Kd, the difference between adsorption at A390 and A420 was calculated, corrected with the A390-to-A420 value at 0 M substrate, and plotted against the substrate concentrations. The data were fitted to equations as described by Funhoff et al..

Chain of CYP153D17 (A0ACD6BAR9 1-407): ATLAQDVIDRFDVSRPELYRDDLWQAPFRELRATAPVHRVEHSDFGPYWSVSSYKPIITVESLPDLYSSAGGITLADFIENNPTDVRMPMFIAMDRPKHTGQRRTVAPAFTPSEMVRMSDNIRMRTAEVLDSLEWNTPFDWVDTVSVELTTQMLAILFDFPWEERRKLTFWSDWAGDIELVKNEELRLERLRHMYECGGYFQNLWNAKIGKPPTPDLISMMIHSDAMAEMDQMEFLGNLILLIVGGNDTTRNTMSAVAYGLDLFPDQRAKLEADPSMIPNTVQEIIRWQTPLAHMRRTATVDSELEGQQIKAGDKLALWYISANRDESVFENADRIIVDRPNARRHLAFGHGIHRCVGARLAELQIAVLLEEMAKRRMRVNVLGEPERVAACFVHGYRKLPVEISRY

| SMILES | Kd [nM] | Spin Shift (%) | Spin Shift (%) (listed as capric acid) | Spin Shift (%) (listed as decane) | Spin Shift (%) (listed as myristic acid) | Spin Shift (%) (listed as lauric acid) |
| --- | --- | --- | --- | --- | --- | --- |
| CCCCCCCCCC(=O)O [Capric acid, capric acid] | 460 ± 410 | ≥90 | ≥ 90 |  |  |  |
| CCCCCCCCCC [Decane, decane] | 590 ± 690 | ≥80 |  | ≥ 80 |  |  |
| CCCCCCCCCCCC [Dodecane, dodecane] | 420 ± 140 |  |  |  |  |  |
| CCCCCCCCCCCCCC(=O)O [Myristic acid, myristic acid] | 540 ± 330 | ≥80 |  |  | ≥ 80 |  |
| CCCCCCCCCCCC(=O)O [Lauric acid, lauric acid] | 490 ± 700 | ≥90 |  |  |  | ≥ 90 |
